Among the test systems are UO-31; SF-268; NCI-H460; HCT-116; OVCAR-4; M14; LOX IMVI; MDA-MB-231; CAKI-1; MDA-MB-435; SF-295; SNB-75; ACHN; SNB-19; SK-MEL-5; SW-620; HCC 2998; OVCAR-5; HT-29; NCI-H226.
Assay in all cases: DTP human tumour cell line panel, 48 h

Here are results for 8 compounds from ChEMBL document CHEMBL1201862, “PubChem BioAssay data set” (2004).

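48-hour exposure; five concentrations; linearly interpolated endpoints. Here, GI50 denotes the concentration required for 50% inhibition of growth.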 Activity calls are given as the source filed them. Cut-off read from the data, not from the text of the source: active = GI50 up to about 1.1 µM and inactive = higher. Bounds are passed on as bounds.

Consider `C=CCN(CC=C)Cn1c(=S)sc2ccccc21`, for which the GI50 in the experiment with UO-31 was 38.8 µM (inactive); with SF-268 it was > 100 µM (inactive); with NCI-H460 it was 82.8 µM (inactive); with HCT-116, > 100 µM (inactive); in the experiment with OVCAR-4 it was 86.3 µM (inactive); in the experiment with M14, > 100 µM (inactive). For the same compound, the GI50 was 17.8 µM (inactive) in the experiment with LOX IMVI; 54.3 µM (inactive) in the experiment with MDA-MB-231; 15.3 µM (inactive) in the experiment on CAKI-1; > 100 µM (inactive) in the experiment with MDA-MB-435; > 100 µM (inactive) in the experiment on SF-295; > 100 µM (inactive) in the experiment on SNB-75. The GI50 in the experiment on ACHN is > 100 µM (inactive); with SNB-19 it was > 100 µM (inactive); with SK-MEL-5, 28.8 µM (inactive); with SW-620 it was 48.8 µM (inactive); in the experiment with HCC 2998, > 100 µM (inactive); in the experiment with OVCAR-5 it was > 100 µM (inactive).
For the compound `C=C(CN)CO[Si](C)(C)C(C)(C)C`, the GI50 in the experiment on UO-31, with SF-268, with HT-29, with NCI-H460, in the experiment with HCT-116 and in the experiment with M14 was > 100 µM (inactive) throughout. Moreover, the GI50 with LOX IMVI, in the experiment with MDA-MB-231, in the experiment with CAKI-1, in the experiment on MDA-MB-435, with NCI-H226 and in the experiment on SF-295 was > 100 µM (inactive) throughout. Besides, the GI50 in the experiment on SNB-75 is 72.1 µM (inactive); in the experiment with ACHN, > 100 µM (inactive); in the experiment with SNB-19 it was > 100 µM (inactive); with SK-MEL-5, > 100 µM (inactive); in the experiment on SW-620, > 100 µM (inactive); in the experiment with HCC 2998 it was > 100 µM (inactive). In the experiment on OVCAR-5, the GI50 is > 100 µM (inactive).
Take `O=c1cc(CNC2CC3CCC2C3)[nH]c(=O)[nH]1` (stereo not drawn): the GI50 in the experiment on UO-31, in the experiment with SF-268, with HT-29, with NCI-H460, in the experiment with HCT-116 and in the experiment on OVCAR-4 was > 100 µM (inactive) in each case. Further, the GI50 with M14, in the experiment with LOX IMVI, in the experiment on MDA-MB-231, in the experiment with CAKI-1, in the experiment on MDA-MB-435 and in the experiment on SF-295 was > 100 µM (inactive) throughout. Further, the GI50 with SNB-75, in the experiment with ACHN, in the experiment on SNB-19, in the experiment with SK-MEL-5, with SW-620 and with HCC 2998 was > 100 µM (inactive) each time. Also, the GI50 in the experiment on OVCAR-5 was > 100 µM (inactive).
As to `O=C1Nc2cccc(Cl)c2/C1=C\c1c(Cl)nc2n1CCS2`, the GI50 in the experiment on UO-31, with SF-268, in the experiment with HT-29, in the experiment with NCI-H460, in the experiment on HCT-116 and with M14 was > 100 µM (inactive) in each case. For the same compound, the GI50 is > 100 µM (inactive) in the experiment with LOX IMVI; > 100 µM (inactive) in the experiment with MDA-MB-231; > 100 µM (inactive) in the experiment on CAKI-1; 35.1 µM (inactive) in the experiment with MDA-MB-435; > 100 µM (inactive) in the experiment on SF-295; > 100 µM (inactive) with SNB-75. The GI50 with ACHN, in the experiment on SNB-19, in the experiment on SK-MEL-5, with SW-620, with HCC 2998 and with OVCAR-5 was > 100 µM (inactive) in each case.
Consider `CCc1cccc(CC)c1Nc1nc(-c2ccccc2-c2ccccc2)cs1`, for which the GI50 in the experiment on UO-31 is 64.4 µM (inactive); in the experiment on SF-268 it was > 100 µM (inactive); in the experiment on NCI-H460 it was 65.3 µM (inactive); in the experiment with HCT-116 it was 51.2 µM (inactive); in the experiment on OVCAR-4, > 100 µM (inactive); in the experiment with M14 it was 92.9 µM (inactive). The GI50 in the experiment with LOX IMVI is > 100 µM (inactive); in the experiment on MDA-MB-231, > 100 µM (inactive); in the experiment with CAKI-1, > 100 µM (inactive); in the experiment on MDA-MB-435 it was 35 µM (inactive); in the experiment on SF-295, > 100 µM (inactive); with SNB-75, 29.5 µM (inactive). In addition, the GI50 in the experiment with ACHN was > 100 µM (inactive); with SNB-19, > 100 µM (inactive); with SK-MEL-5, 79.1 µM (inactive); in the experiment on SW-620, > 100 µM (inactive); in the experiment on HCC 2998, > 100 µM (inactive); in the experiment with OVCAR-5, > 100 µM (inactive).
On to `CC(=O)Nc1ccc(C2SCc3nc4ccccc4n32)cc1` (stereo not drawn), for which the GI50 is 44.3 µM (inactive) in the experiment on UO-31; 55.2 µM (inactive) in the experiment on SF-268; > 100 µM (inactive) in the experiment on HT-29; > 100 µM (inactive) in the experiment on NCI-H460; > 100 µM (inactive) in the experiment on HCT-116; 38.4 µM (inactive) in the experiment with OVCAR-4. Also, the GI50 is > 100 µM (inactive) with M14; 63.8 µM (inactive) in the experiment with LOX IMVI; 26.2 µM (inactive) in the experiment on MDA-MB-231; 39.2 µM (inactive) in the experiment with CAKI-1; > 100 µM (inactive) in the experiment with MDA-MB-435; 87.9 µM (inactive) with SF-295. Further, the GI50 is 34.4 µM (inactive) in the experiment on SNB-75; 96.4 µM (inactive) in the experiment with ACHN; > 100 µM (inactive) in the experiment with SNB-19; 60.1 µM (inactive) with SK-MEL-5; > 100 µM (inactive) with SW-620; > 100 µM (inactive) with HCC 2998. Also, in the experiment with OVCAR-5, the GI50 was > 100 µM (inactive).
On to `CNC(=O)OCc1c(COC(=O)NC)c(-c2ccc(Cl)c(Cl)c2)n2c1SCC2`, for which the GI50 was 7.46 µM (inactive) in the experiment on UO-31; 13.3 µM (inactive) in the experiment on SF-268; 10 µM (inactive) in the experiment with HT-29; 9.04 µM (inactive) with NCI-H460; 11.5 µM (inactive) with HCT-116; 18.7 µM (inactive) in the experiment on M14. For the same compound, the GI50 was 12.4 µM (inactive) in the experiment on LOX IMVI; 10.8 µM (inactive) with MDA-MB-231; 4.22 µM (inactive) in the experiment with CAKI-1; 18 µM (inactive) in the experiment on MDA-MB-435; 0.387 µM (active) in the experiment on NCI-H226; 13.6 µM (inactive) in the experiment with SF-295. Besides, the GI50 is 8.77 µM (inactive) in the experiment with SNB-75; 3.61 µM (inactive) in the experiment with ACHN; 29.2 µM (inactive) in the experiment on SNB-19; 13.5 µM (inactive) in the experiment on SK-MEL-5; 10.8 µM (inactive) in the experiment with SW-620; 19.7 µM (inactive) with HCC 2998. Moreover, in the experiment on OVCAR-5, the GI50 was 4.06 µM (inactive).
As for `CC(=O)C(C(=O)C(C)(C)C)C(=O)C(C)(C)C`, the GI50 with UO-31, with SF-268, in the experiment with NCI-H460, in the experiment on HCT-116, in the experiment on OVCAR-4 and with M14 was > 100 µM (inactive) each time. In addition, the GI50 in the experiment with LOX IMVI is > 100 µM (inactive); in the experiment with MDA-MB-231, > 100 µM (inactive); with CAKI-1, > 100 µM (inactive); in the experiment on MDA-MB-435 it was > 100 µM (inactive); in the experiment with SF-295, > 100 µM (inactive); in the experiment on SNB-75, 59.4 µM (inactive). Besides, the GI50 in the experiment on ACHN, in the experiment on SNB-19, in the experiment with SK-MEL-5, in the experiment on SW-620, in the experiment with HCC 2998 and in the experiment on OVCAR-5 was > 100 µM (inactive) throughout.
